This is an account of results in BindingDB's records for doi:10.1021/jm970389+ (Abbott Laboratories, 1998).

As usually defined, the Ki is a dissociation constant, usually derived from enzyme kinetics or from competition with a known ligand.

The test is described as follows: Binding potency against Platelet activating factor (PAF) receptor using [3H]C18-PAF as radioligand on rabbit platelet membranes.
The compound `CCOCCn1cc(C(=O)c2ccc(Cn3c(C)nc4cnccc43)cc2)c2c(C(=O)OC)cccc21` [1-(2-Ethoxy-ethyl)-3-[4-(2-methyl-imidazo[4,5-c]pyridin-1-ylmethyl)-benzoyl]-1H-indole-4-carboxylic acid methyl ester] registered an inhibition constant Ki of 1.1 nM.
Compound `COC(=O)c1cccc2c1c(C(=O)c1ccc(Cn3c(C)nc4cnccc43)cc1)cn2CC(=O)C(C)(C)C` [1-(3,3-Dimethyl-2-oxo-butyl)-3-[4-(2-methyl-imidazo[4,5-c]pyridin-1-ylmethyl)-benzoyl]-1H-indole-4-carboxylic acid methyl ester] had an inhibition constant (Ki) of 0.67 nM.
For `COC(=O)c1cccc2c1c(C(=O)c1ccc(Cn3c(C)nc4cnccc43)cc1)cn2C(N)=O` [1-Carbamoyl-3-[4-(2-methyl-imidazo[4,5-c]pyridin-1-ylmethyl)-benzoyl]-1H-indole-4-carboxylic acid methyl ester] the value was 1.5 nM; for `COC(=O)c1cccc2c1c(C(=O)c1ccc(Cn3c(C)nc4cnccc43)c(F)c1)cn2C(=O)N(C)C` [1-Dimethylcarbamoyl-3-[3-fluoro-4-(2-methyl-imidazo[4,5-c]pyridin-1-ylmethyl)-benzoyl]-1H-indole-4-carboxylic acid methyl ester], 5 nM; for `COC(=O)c1cccc2c1c(C(=O)c1ccc(Cn3c(C)nc4c(C)nc(C)cc43)cc1)cn2C(=O)N(C)C` [1-Dimethylcarbamoyl-3-[4-(2,4,6-trimethyl-imidazo[4,5-c]pyridin-1-ylmethyl)-benzoyl]-1H-indole-4-carboxylic acid methyl ester], 120 nM.
For the compound `COC(=O)c1cccc2c1c(C(=O)c1ccc(Cn3c(C)nc4c(=O)[nH]ccc43)cc1)cn2C(=O)N(C)C` [1-Dimethylcarbamoyl-3-[4-(2-methyl-4-oxo-4,5-dihydro-imidazo[4,5-c]pyridin-1-ylmethyl)-benzoyl]-1H-indole-4-carboxylic acid methyl ester], affinity was put at a Ki of 4 nM.
For `COC(=O)c1cccc2c1c(C(=O)c1ccc(Cn3c(C)nc4c[n+]([O-])ccc43)cc1)cn2C(=O)N(C)C` [1-Dimethylcarbamoyl-3-[4-(2-methyl-5-oxy-imidazo[4,5-c]pyridin-1-ylmethyl)-benzoyl]-1H-indole-4-carboxylic acid methyl ester] the value was 23 nM.
For `COC(=O)c1cccc2c1c(C(=O)c1ccc(Cn3c(C)nc4ccccc43)cc1)cn2C(=O)N(C)C` [1-Dimethylcarbamoyl-3-[4-(2-methyl-benzoimidazol-1-ylmethyl)-benzoyl]-1H-indole-4-carboxylic acid methyl ester] the value was 0.92 nM; for `COC(=O)c1cccc2c1c(C(=O)c1ccc(Cn3c(C)nc4ncccc43)cc1)cn2C(=O)N(C)C` [1-Dimethylcarbamoyl-3-[4-(2-methyl-imidazo[4,5-b]pyridin-1-ylmethyl)-benzoyl]-1H-indole-4-carboxylic acid methyl ester], 2.9 nM.
The compound `COC(=O)c1cccc2c1c(C(=O)c1ccc(Cn3c(C)nc4cccnc43)cc1)cn2C(=O)N(C)C` [1-Dimethylcarbamoyl-3-[4-(2-methyl-imidazo[4,5-b]pyridin-3-ylmethyl)-benzoyl]-1H-indole-4-carboxylic acid methyl ester] yielded a Ki of 10 nM.
Consider `COC(=O)c1cccc2c1c(S(=O)(=O)c1ccc(Cn3c(C)nc4cnccc43)cc1)cn2C(=O)N(C)C` [1-Dimethylcarbamoyl-3-[4-(2-methyl-imidazo[4,5-c]pyridin-1-ylmethyl)-benzenesulfonyl]-1H-indole-4-carboxylic acid methyl ester], for which the Ki is 13 nM.
For `CCOC(=O)c1cccc2c1c(C(=O)c1ccc(Cn3c(C)nc4cnccc43)cc1)cn2C(=O)N(C)C` [1-Dimethylcarbamoyl-3-[4-(2-methyl-imidazo[4,5-c]pyridin-1-ylmethyl)-benzoyl]-1H-indole-4-carboxylic acid ethyl ester] the value was 5.2 nM; for `Cc1nc2cnccc2n1Cc1ccc(C(=O)c2cn(C(=O)N(C)C)c3cccc(C(=O)OC(C)C)c23)cc1` [1-Dimethylcarbamoyl-3-[4-(2-methyl-imidazo[4,5-c]pyridin-1-ylmethyl)-benzoyl]-1H-indole-4-carboxylic acid isopropyl ester], 4.7 nM; for `Cc1nc2cnccc2n1Cc1ccc(C(=O)c2cn(C(=O)N(C)C)c3cccc(C(=O)O)c23)cc1` [1-Dimethylcarbamoyl-3-[4-(2-methyl-imidazo[4,5-c]pyridin-1-ylmethyl)-benzoyl]-1H-indole-4-carboxylic acid], 14 nM.
For `COC(=O)c1ccc2c(c1)c(C(=O)c1ccc(Cn3c(C)nc4cnccc43)cc1)cn2C(=O)N(C)C` [1-Dimethylcarbamoyl-3-[4-(2-methyl-imidazo[4,5-c]pyridin-1-ylmethyl)-benzoyl]-1H-indole-5-carboxylic acid methyl ester] the value was 110 nM; for `COC(=O)c1cc(C#Cc2ccccc2)cc2c1c(C(=O)c1ccc(Cn3c(C)nc4cnccc43)cc1)cn2C(=O)N(C)C` [1-Dimethylcarbamoyl-3-[4-(2-methyl-imidazo[4,5-c]pyridin-1-ylmethyl)-benzoyl]-6-phenylethynyl-1H-indole-4-carboxylic acid methyl ester], 0.95 nM.
The compound `COC(=O)c1cccc2c1c(C(=O)C1CCC(Cn3c(C)nc4cnccc43)CC1)cn2C(=O)N(C)C` (configuration not stated) [1-Dimethylcarbamoyl-3-[4-(2-methyl-imidazo[4,5-c]pyridin-1-ylmethyl)-cyclohexanecarbonyl]-1H-indole-4-carboxylic acid methyl ester] gave an inhibitory constant (Ki) of 2.4 nM.
For `COC(=O)c1cccc2c1c(C(=O)c1ccc(Cn3ccc4nc(C)nc-4c3)cc1)cn2C(=O)N(C)C` [1-Dimethylcarbamoyl-3-[4-(2-methyl-imidazo[4,5-c]pyridin-5-ylmethyl)-benzoyl]-1H-indole-4-carboxylic acid methyl ester] the value was over 1000 nM; for `COC(=O)c1cccc2c1c(C(=O)CCCCn1c(C)nc3cnccc31)cn2C(=O)N(C)C` [1-Dimethylcarbamoyl-3-[5-(2-methyl-imidazo[4,5-c]pyridin-1-yl)-pentanoyl]-1H-indole-4-carboxylic acid methyl ester], 11 nM.
For `COC(=O)c1cccc2c1c(C(=O)c1ccc(Cn3c(C)nc4cnccc43)s1)cn2C(=O)N(C)C` [1-Dimethylcarbamoyl-3-[5-(2-methyl-imidazo[4,5-c]pyridin-1-ylmethyl)-thiophene-2-carbonyl]-1H-indole-4-carboxylic acid methyl ester] the value was 8.2 nM.
For `COC(=O)c1cccc2c1c(C(=O)CCCCCn1c(C)nc3cnccc31)cn2C(=O)N(C)C` [1-Dimethylcarbamoyl-3-[6-(2-methyl-imidazo[4,5-c]pyridin-1-yl)-hexanoyl]-1H-indole-4-carboxylic acid methyl ester] the value was 6.1 nM; for `COC(=O)c1cccc2c1c(C(=O)CCCCCCn1c(C)nc3cnccc31)cn2C(=O)N(C)C` [1-Dimethylcarbamoyl-3-[7-(2-methyl-imidazo[4,5-c]pyridin-1-yl)-heptanoyl]-1H-indole-4-carboxylic acid methyl ester], 9.4 nM; for `COC(=O)c1cccc2c1c(C(=O)Cc1ccc(-n3c(C)nc4cnccc43)cc1)cn2C(=O)N(C)C` [1-Dimethylcarbamoyl-3-{2-[4-(2-methyl-imidazo[4,5-c]pyridin-1-yl)-phenyl]-acetyl}-1H-indole-4-carboxylic acid methyl ester], 0.63 nM.
Compound `COC(=O)c1cc(-c2ccc(F)cc2)cc2c1c(C(=O)c1ccc(Cn3c(C)nc4cnccc43)cc1)cn2C(=O)N(C)C` [1-Dimethylcarbamoyl-6-(4-fluoro-phenyl)-3-[4-(2-methyl-imidazo[4,5-c]pyridin-1-ylmethyl)-benzoyl]-1H-indole-4-carboxylic acid methyl ester] showed a Ki of 0.15 nM.
For `COC(=O)c1cccc2c1c(C(=O)c1ccc(Cn3c(C)nc4cnccc43)cc1)cn2CC(=O)N(C)C` [1-Dimethylcarbamoylmethyl-3-[4-(2-methyl-imidazo[4,5-c]pyridin-1-ylmethyl)-benzoyl]-1H-indole-4-carboxylic acid methyl ester] the value was 4.4 nM; for `COC(=O)c1cccc2c1c(C(=O)c1ccc(Cn3c(C)nc4cnccc43)cc1)cn2S(=O)(=O)N(C)C` [1-Dimethylsulfamoyl-3-[4-(2-methyl-imidazo[4,5-c]pyridin-1-ylmethyl)-benzoyl]-1H-indole-4-carboxylic acid methyl ester], 4.3 nM; for `COC(=O)c1cccc2c1c(C(=O)c1ccc(Cn3c(C)nc4cnccc43)cc1)cn2C(C)C` [1-Isopropyl-3-[4-(2-methyl-imidazo[4,5-c]pyridin-1-ylmethyl)-benzoyl]-1H-indole-4-carboxylic acid methyl ester], 1.3 nM.
Compound `CNC(=O)n1cc(C(=O)c2ccc(Cn3c(C)nc4cnccc43)cc2)c2c(C(=O)OC)cccc21` [1-Methylcarbamoyl-3-[4-(2-methyl-imidazo[4,5-c]pyridin-1-ylmethyl)-benzoyl]-1H-indole-4-carboxylic acid methyl ester] registered a Ki of 1.5 nM.
In turn, `CCOCCn1cc(C(=O)CN2CCC(n3c(C)nc4cnccc43)CC2)c2c(Cl)cccc21` [1-[4-Chloro-1-(2-ethoxy-ethyl)-1H-indol-3-yl]-2-[4-(2-methyl-imidazo[4,5-c]pyridin-1-yl)-piperidin-1-yl]-ethanone] had an inhibition constant (Ki) of 15 nM.
In turn, `COC(=O)c1cccc2c1c(C(=O)c1ccc(Cn3c(C)nc4ccccc43)cc1)cn2C(=O)N1CCCC1` [3-[4-(2-Methyl-benzoimidazol-1-ylmethyl)-benzoyl]-1-(pyrrolidine-1-carbonyl)-1H-indole-4-carboxylic acid methyl ester] showed a Ki of 1.7 nM.
For `Cc1nc2cnccc2n1Cc1ccc(S(=O)(=O)c2cn(C(=O)N(C)C)c3ccccc23)cc1` [3-[4-(2-Methyl-imidazo[4,5-c]pyridin-1-ylmethyl)-benzenesulfonyl]-indole-1-carboxylic acid dimethylamide] the value was 12 nM; for `COC(=O)c1cccc2c1c(C(=O)c1ccc(Cn3c(C)nc4cnccc43)cc1)cn2S(=O)(=O)C(C)C` [3-[4-(2-Methyl-imidazo[4,5-c]pyridin-1-ylmethyl)-benzoyl]-1-(propane-2-sulfonyl)-1H-indole-4-carboxylic acid methyl ester], 0.19 nM.
